Results as given in PMC5896380, “Selective imaging of cathepsin L in breast cancer by fluorescent activity-based probes” (Chemical Science, 2018).
Each block holds one compound with its values, some of them ahead of it.

Key:
[1] = test system: cathepsins L and B in MDA-MB-231 cells; assay: Cathepsin labeling in MDA-MB-231 cells by SDS-PAGE and western blotting; type: cell-based, human
Protocol: Low passage MDA-MB-231 cells were seeded on 12-well plates (200 000 cells per well per 1 mL of medium) and cultured in Dulbecco’s Modification of Eagle’s Medium (DMEM) supplemented with 10% fetal bovine serum, 2 mM of L-glutamine, 100 units per mL penicillin and 100 μg mL^–1 streptomycin. […] To control for non-specific binding, the cells were preincubated with E64d (25 μM) for 2 hours prior to probe addition. At various time points, the medium was aspirated and the cells were gently washed twice with 1 mL of Dulbecco’s Phosphate-Buffered Saline (DPBS) and then trypsinized, harvested and centrifuged for 10 min (500 × g). The supernatants were removed by aspiration and the pellets washed with 1 mL of DPBS and centrifuged (5 min, 500 × g). The supernatants were again removed and the pellets solubilized in 100 μL 1× SDS/DTT and then boiled for 5 min. Each sample was then cooled to room temperature and sonicated (Branson Sonifier 250, duty cycle: 50, output control: 5, cycles: 5) and then 30 μL was loaded on 4–12% Bis-Tris Plus gels and run for 30 min at 200 V with a SDS-PAGE Standards/Broad Range ladder. Proteins were transferred to a 0.2 μm nitrocellulose membrane for 1 hour at 10 V and then Ponceau staining was used to verify equal loading. Membranes were blocked with 2.5% BSA in Tris-buffered saline/0.1% v/v Tween 20 (TBS-T) for 1 hour at room temperature. Cathepsins L and B were detected by primary goat anti-hCathepsin L (R&D, AF952, 0.2 mg mL^–1, 1 : 2000) and goat anti-hCathepsin B (R&D, AF953, 0.2 mg mL^–1, 1 : 1000) antibodies, respectively, followed by incubation with a secondary antibody (IRDye® 800CW, LI-COR, donkey anti-goat, 1 : 10 000). The membranes were incubated with primary antibodies for 2 hours, and with (fluorescent) secondary antibodies for 30 min (both in TBS-T at room temperature). The fluorescence was read at 700 nm (Cyanine5; excitation 685 nm) and 800 nm (secondary antibody; excitation 785 nm) using an Odyssey fluorescence imaging system (LI-COR). The images were analyzed using Image Studio software.

[2] = test system: HEK293T cathepsin L-transfected cells; settings: probes 0–10 μM incubated with cells up to 24 hours; streptavidin–HRP blot
Protocol: To evaluate probe uptake, 250 000 HEK293T cells transfected with pcDNA3:ppCatL were seeded into 6-well plates and incubated with various concentrations of bMP-cL1 and bMP-cL2 (0–10 μM) for up to 24 hours. In control experiments the cells were preincubated with 25 μM E-64d, a pan-cathepsin inhibitor, for 2 hours prior to probe addition. After incubation samples were collected and immunoblotted. Biotinylated proteins were detected as described above.

[3] = test system: HEK293T cells overexpressing cathepsin L; settings: probes 5 μM, 18 hours; streptavidin magnetic beads; immunoblotting
Protocol: To evaluate MP-cL1 and MP-cL2 selectivity, 250 000 HEK293T cells overexpressing cathepsin L were plated and treated with probes and inhibitors as described above. Streptavidin-bound magnetic beads were prepared in separate tubes according to the manufacturer’s guidelines (Pierce™ Streptavidin Magnetic Beads, Thermo Scientific). Briefly, 50 μL beads were washed with sample lysis buffer and then the lysates were added. Tubes were incubated at room temperature on a rocking platform for 2 hours. The beads were then extensively washed with 50 mM Tris-buffered saline containing 0.1% Tween-20 and collected between each washing step. The beads were then re-suspended in 1× SDS loading buffer at a final volume of 100 μL, and the samples were placed at 95 °C and prepared for immunoblotting as described above to detect biotinylated proteins in the lysates, as well as in the unbound and eluted fractions. To confirm cathepsin L/B selectivity, we seeded HEK293T cells as described above. The probes were added at a 5 μM final concentration and incubated for 18 hours before the cells were harvested and lysed to isolate biotinylated proteins using streptavidin magnetic beads, as described above. The lysates plus the unbound and eluting fractions were then evaluated to detect cathepsin B (in-house mouse polyclonal Ab;[51] dilution 1 : 1000) and cathepsin L (Abcam ab62710).

[4] = test system: cathepsins L and B in HEK293T cells; assay: Cathepsin labeling by Cy5 probes in HEK293T cells, immunoblotting; type: cell-based, human; settings: 1 μM probe, 0–18 hours
Protocol: Figure S3 Cathepsins labeling by two Cy5-tagged probes in HEK293T cells. Panel A. Cells (100,000/well/mL) were incubated with MP-cL3 (1µM) probe for 0-18 hours. Next, cells were harvested and subjected for Western blotting. MP-cL3 probe is very selective toward cathepsin L even after 18 hours of incubation (only residual cathepsin B activity is detected).
MDA-MB-231, thus mostly heavy chain of cathepsin L is labeled. Panel B and Panel C. Cells (100,000/well/mL) were incubated with pan-specific MP-pc1 (1µ M) probe for 0-18 hours. Next, cells were harvested and subjected […]
(1 picture or pasted object on this page, not shown here)

[5] = target: T1, cathepsin V (Homo sapiens, UniProt O60911); assay: kobs/I of activity-based probes, cathepsin V; type: biochemical; settings: Fig. 6A; pseudo-first order, probe at least 5-fold excess over cathepsin, 100 μM ACC substrate; pH 5.5, 37 °C; triplicate, SD below 20%
T1 construct: made in house
Protocol: (§1) All kinetic experiments were performed using fMax (Molecular Devices) and CLARIOStar (BMG LABTECH) spectrofluorimeters operating in kinetic mode using 96-well plates. ACC-labeled substrates were screened using 355 nm and 460 nm wavelengths (excitation and emission, respectively). […] The buffer was prepared at room temperature and the enzyme kinetic studies were performed at 37 °C.
(§2) For the kinetic studies, five recombinant human cathepsins (B, L, V, K and S) were expressed and purified and active site titrated using an E64 inhibitor. The kobs/I parameter was measured under pseudo-first order kinetic conditions, as described.[40] The cathepsin of interest was mixed with various concentrations of probe (at least 5-fold excess over cathepsin) and 100 μM ACC-fluorescence substrate. The experiments were repeated at least three times, and the results are presented as an average. The SDs were below 20%.

[6] = test system: cathepsins L, V, B, S and K; assay: Labeling of recombinant cathepsins by Cy5 probes, SDS-PAGE; type: biochemical, human; settings: cathepsins 10 nM or 100 nM, probe/enzyme ratio 0.2, 1, 5 and 25, 30 min, Cy5 scan
Protocol: In experiment A, the probe concentrations were 2 nM, 10 nM, 50 nM and 250 nM, while in experiment B the probe concentrations were 20 nM, 100 nM, 500 nM and 2.5 μM. The reaction volume for all the samples was 200 μL. After 30 min, 100 μL of 3× SDS/DTT was added to the reaction mixtures, the samples were boiled for 5 min, and then 20 μL of the sample was run on 4–12% Bis-Tris Plus 15-well gels for 30 min at 200 V with 2 μL of PageRuler™ Prestained Protein Ladder. The gels were then directly scanned at 700 nm (red channel for Cy5 detection; excitation 685 nm) using an Odyssey fluorescence imaging system (LI-COR) and the images were analyzed using Image Studio software.

[7] = target: T2, cathepsin L (Homo sapiens, UniProt P07711); assay: kobs/I of activity-based probes, cathepsin L; type: biochemical; settings: Fig. 6A; pseudo-first order, probe at least 5-fold excess over cathepsin, 100 μM ACC substrate; pH 5.5, 37 °C; triplicate, SD below 20%
T2 construct: made in house
Protocol: as §1, §2

[8] = target: T3, cathepsin S (Homo sapiens, UniProt P25774); assay: kobs/I of activity-based probes, cathepsin S; type: biochemical; settings: Fig. 6A; pseudo-first order, probe at least 5-fold excess over cathepsin, 100 μM ACC substrate; pH 5.5, 37 °C; triplicate, SD below 20%
T3 construct: made in house
Protocol: as §1, §2

[9] = target: T4, cathepsin K (Homo sapiens, UniProt P43235); assay: kobs/I of activity-based probes, cathepsin K; type: biochemical; settings: Fig. 6A; pseudo-first order, probe at least 5-fold excess over cathepsin, 100 μM ACC substrate; pH 5.5, 37 °C; triplicate, SD below 20%
T4 construct: made in house
T4 sequence (P43235 115-329): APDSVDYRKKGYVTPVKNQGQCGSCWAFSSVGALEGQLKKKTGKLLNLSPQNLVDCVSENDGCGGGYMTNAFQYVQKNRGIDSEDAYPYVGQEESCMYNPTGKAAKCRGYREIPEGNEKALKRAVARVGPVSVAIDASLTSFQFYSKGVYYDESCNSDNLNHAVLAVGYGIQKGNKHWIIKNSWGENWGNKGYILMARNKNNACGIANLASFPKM
Protocol: as §1, §2

[10] = target: T5, cathepsin B (Homo sapiens, UniProt P07858); assay: kobs/I of activity-based probes, cathepsin B; type: biochemical; settings: Fig. 6A; pseudo-first order, probe at least 5-fold excess over cathepsin, 100 μM ACC substrate; pH 5.5, 37 °C; triplicate, SD below 20%
T5 construct: made in house
Protocol: as §1, §2

T2 sequence (P07711 114-333): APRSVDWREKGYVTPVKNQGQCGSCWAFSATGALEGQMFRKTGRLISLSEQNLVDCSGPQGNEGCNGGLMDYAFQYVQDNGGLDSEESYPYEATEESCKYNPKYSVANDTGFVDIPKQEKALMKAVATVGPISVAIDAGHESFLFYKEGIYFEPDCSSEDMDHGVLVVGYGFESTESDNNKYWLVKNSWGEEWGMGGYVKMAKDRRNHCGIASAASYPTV
T1 sequence (O60911 114-334): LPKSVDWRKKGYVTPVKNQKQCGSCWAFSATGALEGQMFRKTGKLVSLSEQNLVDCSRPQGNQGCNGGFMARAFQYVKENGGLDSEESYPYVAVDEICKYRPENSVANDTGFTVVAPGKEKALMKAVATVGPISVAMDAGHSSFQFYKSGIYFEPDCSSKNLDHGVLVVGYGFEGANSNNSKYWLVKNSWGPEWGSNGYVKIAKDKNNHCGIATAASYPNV
T3 sequence (P25774 115-331): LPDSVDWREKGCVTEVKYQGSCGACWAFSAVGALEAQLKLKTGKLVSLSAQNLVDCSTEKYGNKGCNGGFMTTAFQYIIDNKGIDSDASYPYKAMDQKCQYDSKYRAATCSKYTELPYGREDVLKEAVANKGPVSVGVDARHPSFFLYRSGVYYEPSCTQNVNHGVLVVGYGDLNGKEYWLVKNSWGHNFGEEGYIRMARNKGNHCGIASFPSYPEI

Compound: CCOC(=O)[C@H]1O[C@@H]1C(=O)N[C@@H](CC(C)C)C(=O)NCCC(C)C [E64d, reference compound]
- effect of pre-incubation on cathepsin labeling by probe ([1]; 25 μM, 2 hours prior to probe addition, MDA-MB-231 cells): blocked all cysteine cathepsin activity

Compound: biotin-6-ahx-His-DThr-Phe(F5)-Arg-AOMK [MP-cL1]
- lowest probe concentration giving a signal in the cathepsin MW range [2]: 100 nM
- cross-reactivity with cathepsin B in pulldown eluting fractions [3]: only minor cross-reactivity

- kobs/I Cath-V [5]: 53,200 M^-1s^-1
- kobs/I Cath-L [7]: 47,500 M^-1s^-1
- kobs/I Cath-S [8]: 202,500 M^-1s^-1
- kobs/I Cath-K [9]: 30,150 M^-1s^-1
- kobs/I Cath-B [10]: 265,000 M^-1s^-1
Compound: Cy5-Ala-Arg-Leu-Arg-AOMK [MP-pc1, Cy5-labeled broad spectrum (pan-specific) cathepsin probe]
- cathepsins labeled in HEK293T cells [4]: labeled both cathepsins L (25 kDa and 30 kDa) and B (30 kDa)
- labeling of recombinant cathepsins L, V, B, S and K [6]: can label cathepsins L, V, B and S (10 nM) even at a 1 : 1 ratio
- cathepsins labeled in MDA-MB-231 cells ([1]; 1 μM probe, 0–18 hours, antibody overlay): bound mostly to cathepsin B

Compound: biotin-6-ahx-His-DThr-Phe(F5)-Lys-AOMK [MP-cL2]
- lowest probe concentration giving a signal in the cathepsin MW range [2]: 100 nM
- cross-reactivity with cathepsin B in pulldown eluting fractions [3]: only minor cross-reactivity
